The values below come from ChEMBL document CHEMBL3232726, “Discovery of 2-oxo-1,2-dihydrobenzo[cd]indole-6-sulfonamide derivatives as new RORγ inhibitors using virtual screening, synthesis and biological evaluation” (Eur J Med Chem, 2014).

Assay [1] deals with T1, Nuclear receptor ROR-gamma (Homo sapiens, UniProt P51449).
T1 sequence (P51449 whole entry): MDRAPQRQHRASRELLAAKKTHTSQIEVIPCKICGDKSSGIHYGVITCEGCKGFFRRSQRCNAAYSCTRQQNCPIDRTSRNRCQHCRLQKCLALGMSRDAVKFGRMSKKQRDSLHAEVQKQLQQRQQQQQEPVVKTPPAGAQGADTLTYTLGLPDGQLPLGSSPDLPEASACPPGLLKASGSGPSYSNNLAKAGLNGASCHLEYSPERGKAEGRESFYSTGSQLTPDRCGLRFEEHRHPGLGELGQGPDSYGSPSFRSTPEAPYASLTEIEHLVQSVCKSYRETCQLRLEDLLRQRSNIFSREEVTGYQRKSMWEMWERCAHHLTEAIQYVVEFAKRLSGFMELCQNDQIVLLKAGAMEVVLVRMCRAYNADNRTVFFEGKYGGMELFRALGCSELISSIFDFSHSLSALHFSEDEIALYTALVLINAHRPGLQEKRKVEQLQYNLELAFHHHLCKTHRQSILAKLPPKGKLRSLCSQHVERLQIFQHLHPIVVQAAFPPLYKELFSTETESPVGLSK
Nature of the assay: Antagonist activity at human His6-tagged RORgamma ligand binding domain (262 to 507 aa) assessed as inhibition of SRC1-4 co-activator peptide recruitment by luminescence-based AlphaScreen assay. In general terms: Alpha assays give light when donor and acceptor beads are brought close together.

The target in assay [2] is T1, Nuclear receptor ROR-gamma. The assay is described as follows: Antagonist activity at Gal4-fused RORgamma (unknown origin) expressed in 293T cells after 24 hrs by luciferase reporter gene assay. Format: cell-based.
Assay [3] deals with T1, Nuclear receptor ROR-gamma. Nature of the assay: Antagonist activity at full-length RORgamma (unknown origin) expressed in 293T cells after 24 hrs by luciferase reporter gene assay. Format: cell-based.

What is called IC50 is the concentration at which inhibition is half-maximal.

Turning to `C=CCn1c(CCCN2C(=O)c3cccc4cccc(c34)C2=O)nnc1SCC(=O)Nc1ccc(S(N)(=O)=O)cc1`, the IC50 in assay [1] was determined as 142 µM.

On to `NC(=O)c1ccc(NC(=O)c2cccc(COc3ccc(Cl)cc3)c2)cc1`, for which the IC50 in assay [1] is 168 µM.

In the case of `CCN1C(=O)c2cccc3c(S(=O)(=O)N(C(=O)c4ccncc4)c4ccc(OC)cc4)ccc1c23`, the half-maximal inhibitory concentration (IC50) in assay [1] amounted to 6.47 µM; in assay [2], 0.09 µM; in assay [3], 0.08 µM.

`CCN1C(=O)c2cccc3c(S(=O)(=O)NCc4ccc(OC)cc4)ccc1c23`: in assay [1], the IC50 amounted to 174 µM.

Take `CCN1C(=O)c2cccc3c(S(=O)(=O)NCC4CCN(C(C)=O)CC4)ccc1c23`: the values for the IC50 in assay [2] and in assay [3] were 6.03 µM and 0.59 µM, respectively.

For `CCN1C(=O)c2cccc3c(S(=O)(=O)Nc4ccccc4C(=O)c4ccccc4)ccc1c23`, the IC50 in assay [1] amounted to 156 µM.

Consider `C=CCn1c(COc2ccc(Cl)cc2)nnc1SCC(=O)N/N=C/c1cccc(O)c1`, for which the IC50 in assay [1] was 56.6 µM.
